# Results reported in the supplement of paper PMC10307832.
# Compound: c1ccc2c(CCNc3ccc(Nc4ccncc4)cc3)c[nH]c2c1 [Serdemetan]
# Experiment: relative viability (nuclei count vs DMSO), 5 days (fraction); higher = more cells survive
# Settings: 0.04 µM
# Procedure, shortened: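 Acceptance criteria were a control CV below 25% and at least one doubling per plate. Lung cancer cell lines in 1536-well plates got five library-drug doses (not always all listed) √10 apart by pinning and were left 5 days with no medium change. Viability divides treated-well nuclei by vehicle-well nuclei and is the median across plates. Nuclei were counted by MetaXpress from 4× Hoechst images.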
row,Cell Line,relative viability
1,HCC-366,1
2,NCI-H1666,0.985
3,NCI-H596,1.03
4,LK-2,0.999
5,NCI-H2087,1.16
6,SK-MES-1,0.959
7,H3255,0.968
8,COR-L23,0.951
9,COR-L 105,0.971
10,IA-LM,0.942
11,LOU-NH91,1.02
12,NCI-H2170,1
13,NCI-H2405,0.99
14,HOP-62,1.03
15,HCC-44,0.935
16,A549,0.907
17,LU99A,1.01
18,BEN,0.996
19,HARA,0.938
20,HCC-78,0.998
21,NCI-H322M,0.9
22,LCLC-97TM1,1.08
23,NCI-H2009,0.97
24,A-427,0.954
25,NCI-H661,0.974
26,NCI-H1734,0.854
27,NCI-H460,0.936
28,NCI-H2347,0.982
29,SK-LU-1,1.02
30,NCI-H1395,0.869

# Same assay, conditions: 0.1265 µM
row,Cell Line,relative viability
1,NCI-H2085,0.968
2,Calu-6,1.02
3,HCC-366,0.989
4,NCI-H1666,0.946
5,NCI-H596,0.981
6,LK-2,1.02
7,NCI-H2087,1.08
8,SK-MES-1,1.01
9,H3255,0.944
10,COR-L23,0.988
11,COR-L 105,0.875
12,IA-LM,0.963
13,LOU-NH91,0.946
14,NCI-H2170,1.02
15,NCI-H2405,1.01
16,HOP-62,0.999

row,Cell Line,relative viability
1,HCC-44,0.982
2,A549,0.938
3,LU99A,0.911
4,BEN,0.924
5,HARA,1.01
6,HCC-78,0.752
7,NCI-H322M,1
8,LCLC-97TM1,0.975
9,NCI-H2009,0.967
10,A-427,1
11,NCI-H661,0.977
12,NCI-H1734,0.455
13,NCI-H460,0.962
14,NCI-H2347,0.887
15,SK-LU-1,0.999
16,NCI-H1395,1.02

# Same assay, conditions: 0.4 µM
row,Cell Line,relative viability
1,NCI-H2085,0.897
2,Calu-6,1.02
3,HCC-366,0.978
4,NCI-H1666,0.934
5,NCI-H596,0.989
6,LK-2,1.01
7,NCI-H2087,0.944
8,SK-MES-1,0.971
9,H3255,0.987
10,COR-L23,1.06
11,COR-L 105,0.734
12,IA-LM,0.956
13,LOU-NH91,0.694
14,NCI-H2170,1
15,NCI-H2405,0.984
16,HOP-62,1.01

row,Cell Line,relative viability
1,HCC-44,0.944
2,A549,0.932
3,LU99A,0.903
4,BEN,1.02
5,HARA,0.937
6,HCC-78,0.842
7,NCI-H322M,0.901
8,LCLC-97TM1,0.925
9,NCI-H2009,1
10,A-427,1.03
11,NCI-H661,1.01
12,NCI-H1734,0.821
13,NCI-H460,0.926
14,NCI-H2347,0.903
15,SK-LU-1,1.1
16,NCI-H1395,0.927

# Same assay, conditions: 1.265 µM
row,Cell Line,relative viability
1,NCI-H2085,0.844
2,Calu-6,0.875
3,HCC-366,0.121
4,NCI-H1666,0.634
5,NCI-H596,0.76
6,LK-2,0.848
7,NCI-H2087,0.57
8,SK-MES-1,0.831
9,H3255,0.787
10,COR-L23,0.823
11,COR-L 105,0.815
12,IA-LM,0.711
13,LOU-NH91,0.783
14,NCI-H2170,0.972
15,NCI-H2405,0.921
16,HOP-62,0.873

row,Cell Line,relative viability
1,HCC-44,0.854
2,A549,0.778
3,LU99A,0.52
4,BEN,0.686
5,HARA,0.757
6,HCC-78,0.828
7,NCI-H322M,0.791
8,LCLC-97TM1,0.802
9,NCI-H2009,0.776
10,A-427,0.762
11,NCI-H661,0.815
12,NCI-H1734,0.171
13,NCI-H460,0.77
14,NCI-H2347,0.603
15,SK-LU-1,0.802
16,NCI-H1395,0.804

# Same assay, conditions: 4 µM
row,Cell Line,relative viability
1,NCI-H2085,0.744
2,Calu-6,0.677
3,HCC-366,0.101
4,NCI-H1666,0.781
5,NCI-H596,0.768
6,LK-2,0.887
7,NCI-H2087,0.409
8,SK-MES-1,0.741
9,H3255,0.896
10,COR-L23,0.874
11,COR-L 105,0.89
12,IA-LM,0.505
13,LOU-NH91,0.999
14,NCI-H2170,0.985
15,NCI-H2405,0.859
16,HOP-62,0.907

row,Cell Line,relative viability
1,HCC-44,0.962
2,A549,0.59
3,LU99A,0.427
4,BEN,0.882
5,HARA,0.877
6,HCC-78,0.648
7,NCI-H322M,0.874
8,LCLC-97TM1,0.894
9,NCI-H2009,0.885
10,A-427,0.825
11,NCI-H661,0.94
12,NCI-H1734,0.263
13,NCI-H460,0.316
14,NCI-H2347,0.7
15,SK-LU-1,0.828
16,NCI-H1395,0.61
